In PMC12737022, “Evaluations of Sex Differences in Dosimetry in Rats Following Perfluorohexanesulfonamide (PFHxSA) Oral Exposure” (Toxics, 2025):

Tested on: rat hepatocytes
Assay: In vitro hepatocyte metabolic stability assay, rat hepatocytes
Assay type: in vitro ADME
Details: scaled from hepatocyte clearance at 1 μM
Procedure: In vitro evaluations of PFHxSA and PFHxS hepatocyte metabolic stability were performed in rat hepatocytes, as previously described. Also, human hepatocyte clearance data were obtained from an earlier study. Native PFHxSA was obtained from Alpha Chemistry (purity > 98.4%; Holbrook, NY, USA), and PFHxS was obtained from Ark Pharma Scientific Limited (purity > 95%; Cambridge, UK). Pooled, mixed-sex cryopreserved hepatocyte suspensions were employed in a substrate depletion approach, using a final assay concentration of 1 μM. […]
Targeted, quantitative analysis of in vitro hepatocyte metabolic stability and plasma protein binding assay samples was conducted on a Waters (Milford, MA, USA) Xevo-TQS micro ultra-high-performance liquid chromatography tandem mass spectrometry system (UPLC-MS/MS), modified with a PFAS analysis kit. Samples were analyzed in negative ion mode with UniSpray ionization. Samples were analyzed in triplicate, with a reference compound included to evaluate assay performance. […]
Intrinsic hepatic clearance (Clint) and fraction unbound in plasma (fup) were calculated from the experimental point estimate data as described in Dobreniecki et al.. […] Renal clearance was calculated using the glomerular filtration rate (a species-dependent constant) and the fraction unbound in blood (fub), estimated by adjusting the experimental fup for blood/plasma partitioning. […]

| Structure (SMILES) | Clhep (hepatic clearance) |
| --- | --- |
| O=S(=O)(O)C(F)(F)C(F)(F)C(F)(F)C(F)(F)C(F)(F)C(F)(F)F [PFHxS, perfluorohexane sulfonic acid] | 0 L/h |
| NS(=O)(=O)C(F)(F)C(F)(F)C(F)(F)C(F)(F)C(F)(F)C(F)(F)F [PFHxSA, Perfluorohexanesulfonamide] | 0.0000449 L/h |
